According to ChEMBL document CHEMBL4270575, “Lead-like Drugs: A Perspective” (J Med Chem, 2018):

Tests used:
[1] = target: 3',5'-cyclic-AMP phosphodiesterase 4A (Homo sapiens, UniProt P27815); assay: Inhibition of PDE4A1A (unknown origin)
[2] = target: T1, 3',5'-cyclic-AMP phosphodiesterase 4B (Homo sapiens, UniProt Q07343); assay: Inhibition of PDE4B2 (unknown origin)
[3] = target: 3',5'-cyclic-AMP phosphodiesterase 4D (Homo sapiens, UniProt Q08499); assay: Inhibition of PDE4D7 (unknown origin)
Chain of 3',5'-cyclic-AMP phosphodiesterase 4D (Q08499 whole entry): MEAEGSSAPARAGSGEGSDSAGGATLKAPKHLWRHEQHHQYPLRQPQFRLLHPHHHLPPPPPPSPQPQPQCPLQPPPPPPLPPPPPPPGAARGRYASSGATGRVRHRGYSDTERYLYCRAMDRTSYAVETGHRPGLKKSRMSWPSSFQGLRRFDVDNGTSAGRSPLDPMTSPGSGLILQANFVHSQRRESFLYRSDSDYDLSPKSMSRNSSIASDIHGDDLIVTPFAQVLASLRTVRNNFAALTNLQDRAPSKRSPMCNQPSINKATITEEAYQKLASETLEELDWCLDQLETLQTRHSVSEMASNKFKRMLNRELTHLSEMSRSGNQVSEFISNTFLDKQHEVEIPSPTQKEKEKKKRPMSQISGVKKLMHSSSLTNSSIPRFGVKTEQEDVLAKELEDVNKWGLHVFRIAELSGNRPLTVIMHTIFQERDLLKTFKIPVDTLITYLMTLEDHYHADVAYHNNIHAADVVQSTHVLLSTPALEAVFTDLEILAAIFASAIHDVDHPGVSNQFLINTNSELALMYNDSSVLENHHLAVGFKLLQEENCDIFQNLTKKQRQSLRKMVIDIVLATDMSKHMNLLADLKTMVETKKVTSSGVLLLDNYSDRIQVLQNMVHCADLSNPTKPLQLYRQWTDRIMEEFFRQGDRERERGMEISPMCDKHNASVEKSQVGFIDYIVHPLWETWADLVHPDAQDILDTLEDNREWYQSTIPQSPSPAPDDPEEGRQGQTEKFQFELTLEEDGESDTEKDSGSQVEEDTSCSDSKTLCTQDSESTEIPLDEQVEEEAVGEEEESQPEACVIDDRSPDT

[4] = target: T1, 3',5'-cyclic-AMP phosphodiesterase 4B; assay: Inhibition of PDE4B1 (unknown origin)
[5] = target: 3',5'-cyclic-AMP phosphodiesterase 4C (Homo sapiens, UniProt Q08493); assay: Inhibition of PDE4C1 (unknown origin)
Chain of 3',5'-cyclic-AMP phosphodiesterase 4C (Q08493 whole entry): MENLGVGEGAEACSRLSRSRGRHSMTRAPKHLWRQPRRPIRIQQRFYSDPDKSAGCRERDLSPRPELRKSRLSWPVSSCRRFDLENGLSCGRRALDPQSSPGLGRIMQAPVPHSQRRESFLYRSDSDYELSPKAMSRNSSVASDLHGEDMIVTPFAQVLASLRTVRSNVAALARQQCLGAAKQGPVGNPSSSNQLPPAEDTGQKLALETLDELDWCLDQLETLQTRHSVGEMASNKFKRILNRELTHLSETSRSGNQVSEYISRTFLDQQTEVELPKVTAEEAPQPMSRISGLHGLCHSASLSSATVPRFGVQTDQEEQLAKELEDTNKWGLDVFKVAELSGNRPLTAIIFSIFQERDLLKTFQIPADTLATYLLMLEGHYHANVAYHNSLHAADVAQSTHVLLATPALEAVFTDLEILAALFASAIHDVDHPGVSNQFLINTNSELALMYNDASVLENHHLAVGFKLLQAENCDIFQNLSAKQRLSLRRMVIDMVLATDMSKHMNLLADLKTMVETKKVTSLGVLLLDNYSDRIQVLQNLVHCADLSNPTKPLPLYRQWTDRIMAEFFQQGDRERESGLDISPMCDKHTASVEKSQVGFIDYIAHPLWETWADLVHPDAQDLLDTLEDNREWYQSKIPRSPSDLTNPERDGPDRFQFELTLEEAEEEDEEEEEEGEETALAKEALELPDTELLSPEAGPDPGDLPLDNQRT

Measured: IC50

T1 sequence (Q07343 whole entry): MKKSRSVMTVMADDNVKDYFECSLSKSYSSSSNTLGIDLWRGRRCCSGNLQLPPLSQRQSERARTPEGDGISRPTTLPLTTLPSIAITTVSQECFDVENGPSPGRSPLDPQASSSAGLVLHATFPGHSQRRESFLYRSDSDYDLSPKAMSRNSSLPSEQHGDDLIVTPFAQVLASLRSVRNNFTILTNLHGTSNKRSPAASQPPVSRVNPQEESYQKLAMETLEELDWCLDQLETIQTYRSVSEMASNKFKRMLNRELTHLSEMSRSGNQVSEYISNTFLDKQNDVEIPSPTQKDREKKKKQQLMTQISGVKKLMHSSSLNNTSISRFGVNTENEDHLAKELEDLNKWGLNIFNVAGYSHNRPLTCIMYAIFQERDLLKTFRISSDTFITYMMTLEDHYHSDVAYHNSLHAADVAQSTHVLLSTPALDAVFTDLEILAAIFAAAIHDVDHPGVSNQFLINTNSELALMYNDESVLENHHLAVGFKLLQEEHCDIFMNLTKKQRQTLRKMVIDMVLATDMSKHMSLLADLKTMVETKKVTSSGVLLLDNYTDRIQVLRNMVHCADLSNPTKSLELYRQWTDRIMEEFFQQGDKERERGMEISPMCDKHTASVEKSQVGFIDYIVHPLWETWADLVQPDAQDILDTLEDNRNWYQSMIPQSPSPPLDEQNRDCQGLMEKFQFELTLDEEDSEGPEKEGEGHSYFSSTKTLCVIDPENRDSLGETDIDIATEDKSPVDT
Chain of 3',5'-cyclic-AMP phosphodiesterase 4A (P27815 whole entry): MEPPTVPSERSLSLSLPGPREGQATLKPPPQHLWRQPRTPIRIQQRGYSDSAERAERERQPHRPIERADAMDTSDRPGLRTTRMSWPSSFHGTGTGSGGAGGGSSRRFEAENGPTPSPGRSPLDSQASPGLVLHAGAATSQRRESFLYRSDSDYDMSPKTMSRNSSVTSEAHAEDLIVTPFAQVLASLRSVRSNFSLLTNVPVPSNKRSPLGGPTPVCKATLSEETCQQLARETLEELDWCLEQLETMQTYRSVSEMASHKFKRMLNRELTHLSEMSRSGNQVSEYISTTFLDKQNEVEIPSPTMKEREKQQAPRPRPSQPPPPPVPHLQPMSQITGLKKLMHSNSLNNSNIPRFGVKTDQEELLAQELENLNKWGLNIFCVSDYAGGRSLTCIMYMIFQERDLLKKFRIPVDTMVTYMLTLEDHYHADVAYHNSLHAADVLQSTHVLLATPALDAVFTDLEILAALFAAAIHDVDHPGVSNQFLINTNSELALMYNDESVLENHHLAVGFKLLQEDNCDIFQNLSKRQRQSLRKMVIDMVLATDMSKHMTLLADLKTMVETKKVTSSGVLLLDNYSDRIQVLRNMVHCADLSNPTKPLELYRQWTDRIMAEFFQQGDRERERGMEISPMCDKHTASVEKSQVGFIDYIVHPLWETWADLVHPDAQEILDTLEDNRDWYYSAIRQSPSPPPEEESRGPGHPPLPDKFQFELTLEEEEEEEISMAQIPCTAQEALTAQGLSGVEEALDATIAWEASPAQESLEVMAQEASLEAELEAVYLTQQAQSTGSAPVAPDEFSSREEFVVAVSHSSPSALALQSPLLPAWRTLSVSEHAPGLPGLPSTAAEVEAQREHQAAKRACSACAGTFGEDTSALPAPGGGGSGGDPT

N#Cc1ccc(Oc2ccc3c(c2)COB3O)cc1 [CRISABOROLE]
55 to 340 nM: [1] | [2] | [3] | [4] | [5]
